# Test results from patent US9315475B2 (MERCK SHARP & DOHME CORP., priority 2011, dated 2016).
# Assays:
# HIV = conditions: HIV-infected patients, in combination with nucleoside reverse transcriptase inhibitors; cited from earlier work
# HIV-1 (H9IIIB strain) = assay: Antiviral acute infection assay in cell culture (Spread); assay type: cell-based; conditions: HIV-1 H9IIIB infection of MT-4 human T-lymphoid cells in 10% FBS, mean of at least two independent experiments
# Excerpt: Antiviral Assays in Cell Culture (“Spread”)
# Acute Infection Assay (“Spread”) data were generated using HIV-1 (H9IIIB strain) infection of MT-4 human T-lymphoid cells in 10% FBS, and according to the methods disclosed by J. P. Vacca et al, “L-735,524: An orally bioavailable human immunodeficiency virus type 1 protease inhibitor,” Proc. Natl. Acad. Sci. USA, Vol. 91, pp. 4096-4100 (April 1994).
# wildtype HIV-1 protease = molecular target: T1, wildtype HIV-1 protease (Human immunodeficiency virus type 1 group M subtype B, UniProt P04585); assay: Assay for inhibition of microbial expressed HIV protease (Pepcleav); assay type: biochemical; conditions: wild type HIV-1 protease expressed in E. coli, peptide substrate, pH 5.5; mean of at least two independent experiments; read-out: Pepcleav
# T1 construct: the wildtype HIV-1 protease (which was expressed in Escherichia coli); made in house; host or cells: Escherichia coli
# In short: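 Cleavage of 400 μM peptide substrate Val-Ser-Gln-Asn-(βnaphthyl)Ala-Pro-Ile-Val by 20 pM wild-type enzyme (E. coli-expressed) ran 1 h at 30 °C after 30 min inhibitor preincubation, pH 5.5 acetate buffer. Inhibition derived from product peak area by C18 LC with multiple-reaction-monitoring MS after formic acid quench.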
# [1] = Human immunodeficiency virus 1, T-lymphoid
SMILES,effect on HIV viral loads and CD4 cell counts (HIV),EC50 (HIV-1 (H9IIIB strain); [1]) [nM],IC50 (wildtype HIV-1 protease) [nM],EC50 (HIV-1 (H9IIIB strain)) [nM]
"CC(C)(C)NC(=O)[C@@H]1CN(Cc2cccnc2)CCN1C[C@@H](O)C[C@@H](Cc1ccccc1)C(=O)N[C@H]1c2ccccc2C[C@H]1O [Indinavir, indinavir]",highly effective in reducing HIV viral loads and increasing CD4 cell counts,,,
"COC(=O)N[C@H](C(=O)Nc1cccc(F)c1CC[C@@H]1CN[C@H](COC(N)=O)CO1)C(c1ccc(F)cc1)c1ccc(F)cc1 [Example 284, N-[2-(2-{(2R,5S)-5-[(carbamoyloxy)methyl]morpholin-2-yl}ethyl)-3-fluorophenyl]-4-fluoro-β-(4-fluorophenyl)-Nα-(methoxy-carbonyl)-L-phenylalaninamide]",,19,12,
"N[C@H](C(=O)Nc1cncc(F)c1CC[C@@H]1CN[C@H](COC(=O)NCC(F)(F)F)CO1)[C@H](c1ccccc1)c1ccc(Cl)cc1 [Example 95, (βR)-β-(4-Chlorophenyl)-N-(5-fluoro-4-{2-[(2R,5S)-5-({[(2,2,2-trifluoroethyl)carbamoyl]oxy}methyl)morpholin-2-yl]ethyl}pyridin-3-yl)-L-phenylalaninamide]",,16,0.4,
"NC(=O)OC[C@@H]1CO[C@H](COc2c(F)cncc2NC(=O)[C@@H](N)C(c2ccc(F)cc2)c2ccc(F)cc2)CN1 [Example 206, N-[4-({(2S,5S)-5-[(carbamoyloxy)methyl]morpholin-2-yl}methoxy)-5-fluoropyridin-3-yl]-4-fluoro-β-(4-fluorophenyl)-L-phenylalaninamide]",,120,21,
"N[C@H](C(=O)Nc1cncc(F)c1CC[C@@H]1CN[C@H](COC(=O)NCC(F)(F)F)CO1)[C@H](c1ccc(F)cc1)c1ccc(Cl)c(F)c1 [Example 221, (βR)-β-(4-chloro-3-fluorophenyl)-4-fluoro-N-(5-fluoro-4-{2-[(2R,5S)-5-({[(2,2,2-trifluoro-ethyl)carbamoyl]oxy}methyl)morpholin-2-yl]ethyl}pyridin-3-yl)-L-phenylalaninamide]",,22,1.1,
COC(=O)N[C@H](C(=O)Nc1cccc(F)c1CC[C@@H]1CN[C@H](COC(=O)NCC(F)(F)F)CO1)[C@H](c1ccc(F)cc1)c1ccc2ccccc2c1 [Example 289],,310,16,
"N[C@H](C(=O)Nc1cccc(F)c1CC[C@@H]1CN[C@H](COC(=O)NCC(F)(F)F)CO1)C(c1cccc(F)c1)c1cccc(F)c1 [Example 262, 3-fluoro-β-(3-fluorophenyl)-N-(3-fluoro-2-{2-[(2R,5S)-5-({[(2,2,2-trifluoroethyl)carbamoyl]oxy}methyl)morpholin-2-yl]ethyl}phenyl)-L-phenylalaninamide]",,15,4,
"N[C@H](C(=O)Nc1c(Cl)cccc1OC[C@@H]1CN[C@H](COC(=O)NCC(F)(F)F)CO1)C(c1ccc(F)cc1)c1ccc(F)cc1 [Example 261, N-(2-chloro-6-{[(2S,5S)-5-({[(2,2,2-trifluoroethyl)carbamoyl]oxy}methyl)morpholin-2-yl]methoxy}phenyl)-4-fluoro-β-(4-fluorophenyl)-L-phenylalaninamide]",,,4.3,170
"NC(=O)OC[C@@H]1CO[C@H](CCc2c(F)cccc2NC(=O)C[C@@H](c2ccc(F)cc2)c2ccncc2F)CN1 [Example 157, {(3S,6R)-6-[2-(2-fluoro-6-{[(3S)-3-(4-fluorophenyl)-3-(3-fluoropyridin-4-yl)propanoyl]amino}phenyl)ethyl]morpholin-3-yl}methyl carbamate]",,18,9.6,
"N[C@H](C(=O)Nc1cncc(F)c1CC[C@@H]1CN[C@H](C(=O)Nc2ccccc2O)CO1)C(c1ccc(F)cc1)c1ccc(F)cc1 [Example 271, 4-fluoro-N-[5-fluoro-4-(2-{(2R,5S)-5-[(2-hydroxyphenyl)carbamoyl]morpholin-2-yl}ethyl)pyridin-3-yl]-β-(4-fluorophenyl)-L-phenylalaninamide]",,810,2,
"COC(=O)N[C@H](C(=O)Nc1cccc(F)c1CC[C@@H]1CN[C@H](COC(=O)NCC(F)(F)F)CO1)[C@H](c1ccccc1)c1ccc(OC)cc1 [Example 296, (βR)-N-(3-fluoro-2-{2-[(2R,5S)-5-({[(2,2,2-trifluoroethyl)carbamoyl]oxy}methyl)morpholin-2-yl]ethyl}phenyl)-Nα-(methoxy-carbonyl)-O-methyl-β-phenyl-L-tyrosinamide]",,120,23,
"N[C@H](C(=O)Nc1cncc(F)c1CC[C@@H]1CN[C@H](COC(=O)NC2CC(F)(F)C2)CO1)C(c1ccc(F)cc1)c1ccc(F)cc1 [Example 217, N-(4-{2-[(2R,5S)-5-({[(3,3-difluorocyclobutyl)carbamoyl]oxy}methyl)morpholin-2-yl]ethyl}-5-fluoropyridin-3-yl)-4-fluoro-β-(4-fluorophenyl)-L-phenylalaninamide]",,94,2.7,
